Test results: patent publication US20210332024A1, “MODULATORS OF PIN1 ACTIVITY AND USES THEREOF” (Yeda Research and Development Co. Ltd., priority 2019, published 2021)
pEC50, pKi: −log10 of the molar value.

Columns and labels:
[1] = Thiol reactivity assay (DTNB); format: physicochemical; details: 200 μM compound, pH 7.4, 37° C.
Method: 50 μM DTNB (dithionitrobenzoic acid) was incubated with 200 μM TCEP (tris(2-carboxytehyl)phosphine) in 20 mM sodium phosphate buffer (pH 7.4) with 150 mM NaCl, for 5 minutes at room temperature, in order to obtain TNB^2− (thionitrobenzoate dianion). 200 μM compounds were subsequently added to the TNB^2−, followed by immediate UV absorbance measurement at 412 nm (at 37° C.). The UV absorbance was acquired every 15 minutes for 7 hours. The assay was performed in a 384-well plate using a Spark™ 10M plate reader (Tecan). Background absorbance of compounds was subtracted by measuring the absorbance at 412 nm of each compound under the same conditions without DTNB. Compounds were measured in triplicates. The data was fitted to a second order reaction equation such that the rate constant k is the slope of ln([A][B0]/[B][A0]), where [A0] and [B0] are the initial concentrations of the compound (200 μM) and TNB^2− (100 μM) respectively, and [A] and [B] are the remaining concentrations as a function of time, as determined from the spectrometric measurement. Linear regression using Prism® software was performed to fit the rate against the first four hours of measurements.
In order to estimate the influence of the various lipophilic moieties on “warhead” reactivity [Flanagan et al., J Med Chem 2014, 57:10072-10079; Lonsdale et al., J Chem Inf Model 2017, 57:3124-3137; Dahal et al., Medchemcomm 2016, 7:864-872], the thiol reactivity of the top ten binders of the second and third generation was assessed using a high-throughput assay previously applied to the entire fragment library, as described in Resnick et al. [J Am Chem Soc 2019, 141:8951-8968]. In brief, the second-order rate constant was evaluated for a model thiol, which reflects trends in general reactivity towards thiol groups.

MDA-MB-231 cells = experiment: Cell viability assay (CellTiter-Glo); format: cell-based; details: cell viability assay with MDA-MB-231 cells
Method: MDA-MB-231 cells grew in DMEM medium supplemented with 10% FCS (fetal calf serum), 1% PS (penicillin-streptomycin) and 1% L-glutamine (all from Biological Industries). Exclusion of mycoplasma contamination was monitored and conducted by test with MycoAlert™ kit (Lonza). Cells were trypsinized and counted, and 1000 cells/well were plated in 50 μl of growth medium into 384-well white TC plates (Greiner) using Multidrop™ 384 (Thermo Scientific) Washer Dispenser II. The number of viable cells was monitored using CellTiter-Glo® Luminescent kit (Promega) in accordance with the manufacturer's protocol. Luminescence was measured using luminescence module of PHERAstar™ FS plate reader (BMG Labtech). Data analysis was performed using GeneData 12 analytic software. Assay ready plate preparation: Compounds transferred into black microplates (Greiner 784900) using Labcyte Echo® acoustic dispensing technology. Assay ready plates were then sealed with heat seals. If not used immediately, plates were frozen at −20° C. and held in polypropylene boxes with silica-gel desiccant.
Exemplary Pin1-binding compounds were also tested for non-selective cytotoxicity in a viability assay against IMR90 lung fibroblasts.

catalytic domain of Pin1 = target: T1, catalytic domain of Pin1 (Homo sapiens, UniProt Q13526); experiment: Intact protein LC/MS labeling of Pin1; format: binding
T1 construct: The purified catalytic domain of Pin1 was incubated with the fragment library
Method: 993 compounds were transferred to a 384-well plate working copy by combining 0.5 μl of 20 mM stock solution of four or five compounds per well. The catalytic domain of Pin1 (2 μM) in 20 mM Tris, 75 mM NaCl, pH 7.5 was incubated with 200 μM for each compound and moderately shaken for 24 hours at 4° C. The reaction was stopped by the addition of formic acid to 0.4% (v/v) final concentration.
Liquid chromatography/mass spectroscopy runs were performed on an Acquity™ UPLC® H-class system (Waters) in positive ion mode using electrospray ionization (ESI). UPLC separation was performed on a C4 column (300 Å, 1.7 μM, […]). The column was held at 40° C., and the autosampler at 10° C. Mobile solution A was 0.1% formic acid in water and mobile phase B was 0.1% formic acid in acetonitrile. Run flow was 0.4 ml/minute; and a gradient of 20% B for 2 minutes, increasing linearly to 60% B for 3 minutes, holding at 60% B for 1.5 minutes, changing to 0% B in 0.1 minute and holding at 0% for 1.4 minutes, was used. Desolvation temperature was 500° C. with a flow rate of 1000 liters/hour. The capillary voltage was 0.69 kV and cone voltage 46 V. Raw data was processed using OpenLynx™ software and deconvoluted using the MaxEnt tool. Labeling assignment was performed as described in Resnick et al. [J Am Chem Soc 2019, 141:8951-8968].
For the screening 2 μl of each of the 448 click products as 50 μM DMSO stocks were transferred into a 384-well plate working plate. 48 μl of catalytic domain of Pin1 (2 μM) in 20 mM Tris (pH 7.5) with 75 mM NaCl were added and moderately shaken and incubated for 15 minutes at room temperature. The reaction was stopped by the addition of formic acid to 0.4% (v/v) final concentration (20 μl). The mixtures were analyzed by liquid chromatography/mass spectroscopy analogously to the electrophile library incubations described herein. Hits were retrospectively analyzed by liquid chromatography/mass spectroscopy (LC-MS) to ensure reaction completion.
For each measured well, processed peaks were searched to match the mass of unlabeled protein or common small adducts of the unlabeled protein, which were found in the control sample or labeled protein. Labeling percentage for a compound was determined as the labeling of a specific compound divided by the overall detected protein species. Peaks whose mass could not be assigned were discarded from the overall labeling calculation. Data was analyzed using a python script for processing the MaxEnt-deconvoluted spectra. Peaks were normalized from ion counts to percentages, where the highest peak is defined as 100%. The unlabeled protein mass is deduced from a reference well that contains just the protein.
The purified catalytic domain of Pin1 was incubated with the fragment library (2 μM protein, 200 μM compound; 24 hours at 4° C.), followed by intact protein liquid chromatography/mass-spectrometry (LC/MS) to identify and quantify compound labeling. FIG. 1 depicts an example of a compound identified in this manner.
Based on the docking predictions, a total of 26 compounds that featured a range of small or bulky aliphatic, arylic, biphenylic or heterocyclic side-chains (structures depicted in FIG. 5), were synthesized or purchased. In order to identify potent binders, the irreversible labeling efficiency of these second-generation compounds was assessed alongside the original screening hits under more stringent conditions, with a 1:1 ratio of protein to compound (2 μM compound; 1 hour at room temperature).
For further optimization of the lipophilic moiety, an alkyne side chain-bearing analog was prepared, which was derivatized with 448 different azides using copper-catalyzed azide-alkyne cycloaddition (CuAAC).

GST-Pin1 = GST-Pin1 (Homo sapiens, UniProt Q13526); experiment: Fluorescence polarization (FP) competition assay; format: binding; details: FP assay, competition with fluorescein-labeled peptide, 250 nM GST-Pin1; read-out: Ki (apparent)
Method: Binding affinity to Pin1 was determined using a fluorescence polarization assay to assess competition with an N-terminal fluorescein-labeled peptide (Bth-D-phosThr-Pip-Nal), which was obtained from JPT Peptide Technologies and Proteintech Group. The indicated concentrations of candidate compound were pre-incubated for 12 hours at 4° C. with a solution containing 250 nM glutathione S-transferase (GST)-Pin1, 5 nM of fluorescein-labeled peptide probe, 10 μg/ml bovine serum albumin, 0.01% Tween-20 and 1 mM DTT (dithiothreitol) in a buffer of 10 mM HEPES, 10 mM NaCl and 1% glycerol (pH 7.4). Measurements of FP were performed in black 384-well plates (Corning) using an EnVision™ reader. Apparent Ki values (under the tested conditions) obtained from the FP assay results were derived from the Kenakin Ki equation:
Kenakin Ki=(Lb)(EC50)(Kd)/(Lo)(Ro)+Lb(Ro−Lo+Lb−Kd)
Sittampalam G. S. et al., Eli Lilly & Company and the National Center for Advancing Translational Sciences, 2004].
Covalent labeling of Pin1 was confirmed to translate into enzyme inhibition via a fluorescence polarization (FP) competition assay using a FITC-labeled substrate mimetic peptide inhibitor, as well as a chymotrypsin-coupled PPIase assay, using procedures described in Wei et al. [Nat Med 2015, 21:457-466].
The fluorescent polarization assay was performed in a dose-dependent and time-dependent manner, in order to further characterize the kinetic parameters of Pin1-3 binding to Pin1.

[2] = 2 μM Pin1 with 2 μM test compound for 1 hour at room temperature
[3] = 2 μM Pin1 with 200 μM test compound for 24 hours at 4° C.
[4] = 2 μM Pin1 with 2 μM test compound for 15 minutes at room temperature

Chain of GST-Pin1 (Q13526 whole entry): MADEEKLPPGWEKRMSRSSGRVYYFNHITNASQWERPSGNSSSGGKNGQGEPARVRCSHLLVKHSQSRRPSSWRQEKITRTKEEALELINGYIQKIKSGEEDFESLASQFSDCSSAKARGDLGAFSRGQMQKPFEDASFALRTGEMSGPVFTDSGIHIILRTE
T1 sequence (Q13526 52-163 limits assumed): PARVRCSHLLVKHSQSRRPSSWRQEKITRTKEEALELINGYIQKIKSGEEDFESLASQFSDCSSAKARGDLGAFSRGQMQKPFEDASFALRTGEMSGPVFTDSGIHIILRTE

| SMILES | Reactivity Log k [1] | Reactivity k [1] [M⁻¹ s⁻¹] | pEC50 (MDA-MB-231 cells) | Labeling [%] (catalytic domain of Pin1; [2]) | pKi (GST-Pin1) | Labeling [%] (catalytic domain of Pin1; [3]) | Labeling [%] (catalytic domain of Pin1; [4]) |
| --- | --- | --- | --- | --- | --- | --- | --- |
| O=C(CCl)N(Cc1cccs1)C1CCS(=O)(=O)C1 (centres unmarked) [Pin1-433] | −6.67 | 2.13e-07 | 5.05 | 45 | – | – | – |
| O=C(CCl)N(Cc1ccccc1OCc1ccccc1)C1CCS(=O)(=O)C1 (centres unmarked) [Pin1-2-7] | −6.99 | 1.02e-07 | 5.21 | 37 | 7.41 | – | – |
| CC1(N(Cc2ccccc2)C(=O)CCl)CCS(=O)(=O)C1 (centres unmarked) [Pin1-2-9] | −7.11 | 7.68e-08 | 4.95 | 43 | 7.08 | – | – |
| COCCN(C(=O)CCl)C1CCS(=O)(=O)C1 (centres unmarked) [Pin1-324] | −6.80 | 1.59e-07 | – | 12 | – | – | – |
| O=C(CCl)N(CC1CCCO1)C1CCS(=O)(=O)C1 (centres unmarked) [Pin1-838] | −6.85 | 1.41e-07 | – | 16 | – | – | – |
| O=C1C=CC(=O)c2c(O)cccc21 [Juglone, 5-hydroxy-1,4-naphthalenedione, reference compound] | – | – | – | – | 5.76 | – | – |
| CCN(C(=O)CCl)C1CCS(=O)(=O)C1 (centres unmarked) [PCM-0102105] | −6.96 | 1.1e-07 | – | 0 | – | 85 | – |
| Cc1ccsc1CN(C(=O)CCl)C1CCS(=O)(=O)C1 (centres unmarked) [Pin1-2-8] | −6.66 | 2.19e-07 | 5.29 | 52 | 6.88 | – | – |
| O=C(CCl)N(Cc1ccccc1-c1ccccc1)C1CCS(=O)(=O)C1 (centres unmarked) [Pin1-2-10] | −6.89 | 1.3e-07 | – | 25 | – | – | – |
| O=C(CCl)N(CC1CC1)C1CCS(=O)(=O)C1 (centres unmarked) [Pin1-3-13] | −6.82 | 1.5e-07 | – | – | 6.92 | – | – |
| CC(=O)c1cccc(-n2cc(CN(C(=O)CCl)C3CCS(=O)(=O)C3)nn2)c1 (centres unmarked) [Compound P1-03-D08] | −5.92 | 1.2e-06 | – | – | – | – | 54 |
| O=C(CCl)N(C1CCS(=O)(=O)C1)C(Cc1ccccc1)c1ccccc1 (centres unmarked) [Pin1-2-1] | −6.96 | 1.09e-07 | 5.55 | 50 | 7.24 | – | – |
| Cc1cccc(CN(C(=O)CCl)C2CCS(=O)(=O)C2)c1 (centres unmarked) [Pin1-2-6] | −6.80 | 1.58e-07 | 5.25 | 30 | 6.71 | – | – |
| O=C(CCl)NC1CCS(=O)(=O)C1 (centres unmarked) [PCM-0102138] | −6.92 | 1.2e-07 | – | 0 | – | 56 | – |
| CN(C)CCN(C(=O)CCl)C1CCS(=O)(=O)C1 (centres unmarked) [Pin1-707] | −8.93 | 1.17e-09 | – | 0 | – | – | – |
| CCC(C)N(C(=O)CCl)C1CCS(=O)(=O)C1 (centres unmarked) [Pin1-053] | −6.91 | 1.24e-07 | – | 28 | – | – | – |
| O=C(CCl)N(Cc1cn(-c2ccc(O)cc2)nn1)C1CCS(=O)(=O)C1 (centres unmarked) [Compound P1-03-C04] | −6.42 | 3.78e-07 | – | – | – | – | 72 |
